Each structure is given as a SMILES string.

This test has as its target T1, HDAC 2 (Homo sapiens, UniProt Q92769).
T1 construct: gene HDAC2
Description: HDAC enzyme inhibition assay (details not shown). Format: biochemical.

T1 sequence (Q92769 whole entry): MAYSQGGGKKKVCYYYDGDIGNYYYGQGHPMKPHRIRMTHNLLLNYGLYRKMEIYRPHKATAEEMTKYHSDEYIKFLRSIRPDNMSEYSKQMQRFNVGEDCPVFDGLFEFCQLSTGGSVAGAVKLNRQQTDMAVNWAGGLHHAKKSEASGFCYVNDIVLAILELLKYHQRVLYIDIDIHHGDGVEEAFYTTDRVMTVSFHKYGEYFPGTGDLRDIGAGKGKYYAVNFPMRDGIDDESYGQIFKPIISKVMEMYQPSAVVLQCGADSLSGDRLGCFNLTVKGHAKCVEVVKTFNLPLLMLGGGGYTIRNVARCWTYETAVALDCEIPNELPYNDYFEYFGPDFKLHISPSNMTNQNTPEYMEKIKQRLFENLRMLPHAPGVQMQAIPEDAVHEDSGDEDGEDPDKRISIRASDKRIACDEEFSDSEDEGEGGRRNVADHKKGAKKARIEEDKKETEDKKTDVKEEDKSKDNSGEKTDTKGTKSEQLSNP

`COc1cc(NC(=O)NCCCCCCC(=O)NO)c2nc(OC)cc(C)c2c1` [compound 8, MPK544]: the 50% inhibitory concentration (IC50) stood at 58 ± 20 nM.
